81 compounds from the METLIN SMRT retention time set (Domingo-Almenara et al. 2019) can be followed below.

This series can be described thus: gradient 5% acetonitrile 3 min, to 50% in 2 min, to 85% in 15 min, held 3 min, 100 µL/min. The conditions noted are these: column: Zorbax Extend-C18 2.1 x 50 mm; eluents: water / acetonitrile, 0.1% formic acid. A digest of the protocol: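 Using water and acetonitrile that each contained 0.1% formic acid, mixtures of ~100 pure standards were separated at 100 μL/min on a Zorbax Extend-C18 column (2.1 × 50 mm, 1.8 μm). The HPLC fed a quadrupole time-of-flight mass spectrometer working in positive and negative ionization mode, with dead and dwell volumes of 40 μL and 900 μL. Data were acquired over 3 months. Retention time was read from computationally picked adduct peaks after manual inspection of each.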
`Cc1nc(-c2cc(S(=O)(=O)N3CCCc4ccccc43)c(C)s2)sc1C` gave an RP-LC retention time of 1290 s.

Turning to `CCc1ccc(-c2nc(-c3ccc4c(c3)ncn4CCN3CCOCC3)no2)cc1`, the RP-LC retention time stood at 685 s.

As to `CCCCNC(=O)CSc1nnc(C)c2c(C)n(-c3ccccc3)nc12`, the RP-LC retention time is 646 s.

In the case of `Cc1ccc(NC(=O)N2CCc3c(c(-c4nnc(-c5ccc(F)cc5)o4)nn3C)C2)c(Cl)c1`, the RP-LC retention time was found to be 944 s.

As for `COC(=O)C(Cc1ccccc1)NC(=O)Nc1cccn2cnnc12` (stereo unspecified), the RP-LC retention time came out at 700 s.

With `COc1ccc(OC)c2sc(NC(=O)C3CCCCN3S(C)(=O)=O)nc12` (stereo unspecified), the RP-LC retention time was determined as 793 s.

`O=c1c(NCc2ccccn2)nc2ccncc2n1Cc1ccccc1`: the RP-LC retention time was found to be 578 s.

`O=C(NCc1ccccn1)c1c(-c2ccccc2)nnc2ccccc12` returned an RP-LC retention time of 609 s.

For `Cc1ccc(-c2cc3c4nnc(SCC(=O)Nc5cccc(Cl)c5C)n4ccn3n2)cc1C`, the RP-LC retention time stood at 1060 s.

`Fc1ccc(OCc2nc(C3CCCN3)no2)cc1` (stereo unspecified) had an RP-LC retention time of 564 s.

`CCOC(=O)c1nc(NCCCN2CCN(c3ccc(F)cc3)CC2)c2ccccc2n1` came in with an RP-LC retention time of 647 s.

Turning to `CCCN1C(=O)COc2ccc(-c3noc(-c4ccc(C#N)cc4)n3)cc21`, the RP-LC retention time stood at 1130 s.

On to `O=C(NC12CC3CC(CC(C3)C1)C2)C1CCN(S(=O)(=O)c2cccs2)CC1`, for which the RP-LC retention time was 1070 s.

`Cc1noc(C)c1CCC(=O)Nc1nnc(-c2ccsc2)o1` returned an RP-LC retention time of 628 s.

For `Cc1cc(Nc2nc3ccncc3n(C(C)C)c2=O)ccc1F`, the RP-LC retention time came to 679 s.

In turn, `Cc1ccc(C(=O)N2CCN(c3ccc(=O)n(-c4ccc(Cl)cc4)n3)CC2)s1` had an RP-LC retention time of 885 s.

`CCCN(CCC)S(=O)(=O)c1ccc(Br)c(OC)c1` had an RP-LC retention time of 1060 s.

As to `COc1ccc(CNC(=O)Nc2cc3c(cc2N2CCCC2)n(C)c(=O)n3C)cc1`, the RP-LC retention time was found to be 750 s.

On to `Cc1ccc(NC(=O)Cn2c(N)nc(C)c(C)c2=O)c(C)c1`, for which the RP-LC retention time is 608 s.

Compound `Cc1ccc(C(=O)N2C[C@@H](F)C[C@H]2C(=O)N2CCCCC2)c(C)c1` showed an RP-LC retention time of 740 s.

On to `O=C(Cn1nc(C2CC2)cc1C(=O)N1CCCC1)NCc1ccc(F)cc1`, for which the RP-LC retention time was 738 s.

Turning to `COc1ccc(OC)c(C(O)CN2CCC(c3nc(C)no3)CC2)c1` (stereo unspecified), the RP-LC retention time stood at 574 s.

For `CCCn1c(=O)sc2cc(S(=O)(=O)N3CCC(C(=O)NCc4ccc(F)cc4)CC3)ccc21`, the RP-LC retention time was found to be 934 s.

In the case of `Cc1nnc(-c2ccncc2)o1`, the RP-LC retention time was 547 s.

Regarding `Cc1cccc(-c2nc(Cn3nnc(-c4nc(-c5ccccc5)no4)c3C)c(C)o2)c1`, the RP-LC retention time came to 1280 s.

The compound `CCn1nnc2ccc(-c3noc(-c4ccc(NC(C)=O)cc4)n3)cc21` gave an RP-LC retention time of 807 s.

`CCOC(=O)CNC(=O)NCC(=O)N1CCc2ccccc21` came in with an RP-LC retention time of 658 s.

In turn, `CC(C)Cc1csc(-c2csc(S(=O)(=O)NCc3cc(F)cc(F)c3)c2)n1` yielded an RP-LC retention time of 1200 s.

With `CS(=O)(=O)N1CCN(C(=O)c2nn(CC3CC3)c3c2CNCC3)CC1`, the RP-LC retention time is 558 s.

Compound `Cc1ccc(NC(=O)N2CCC(OC3CCN(S(C)(=O)=O)CC3)CC2)cc1Cl` yielded an RP-LC retention time of 867 s.

Compound `O=C(CN1N=C(c2ccccc2)c2ccccc2S1(=O)=O)Nc1cccc(Cl)c1` displayed an RP-LC retention time of 1020 s.

On to `O=S(=O)(CCCOc1ccc(F)cc1)NCC1CCCO1` (stereo unspecified), for which the RP-LC retention time was 763 s.

Turning to `COc1ccccc1-c1noc(-c2nc(-c3ccc4c(c3)OCO4)no2)n1`, the RP-LC retention time came to 1120 s.

For the compound `CC1CCN(c2cncnc2-n2cc(NC(=O)NC(C)(C)C)cn2)CC1`, the RP-LC retention time was found to be 722 s.

Take `CC(C)CC(=O)N1CCC(c2noc(-c3ccncc3)n2)C1` (stereo unspecified): the RP-LC retention time came to 719 s.

Regarding `Cc1cccc(S(=O)(=O)N2CC3CN(C(=O)C4CCCO4)CC(C2)O3)c1` (stereo unspecified), the RP-LC retention time is 688 s.

`O=C(NCCCn1nc(-c2ccc(F)cc2)ccc1=O)Nc1cc(Cl)ccc1Cl` gave an RP-LC retention time of 566 s.

As for `c1ccc(-c2nc(-c3ccnc(N4CCCC4)c3)no2)nc1`, the RP-LC retention time stood at 594 s.

On to `CCc1ccc(Nc2nc(C(=O)NCc3ccc(C)o3)nc3ccccc23)cc1`, for which the RP-LC retention time turned out to be 923 s.

Compound `Cc1ccc(-n2ccc(=O)c(-c3nc(-c4ccc(OC(C)C)cc4)no3)n2)cc1` came in with an RP-LC retention time of 1060 s.

`COc1cccc(CNC(=O)C2CCCN(c3cnc4nccnc4c3)C2)c1OC` (stereo unspecified) came in with an RP-LC retention time of 675 s.

In turn, `CN(C)c1ccc2c(c1)CN(C(=O)C1COc3ccccc3O1)CCO2` (stereo unspecified) displayed an RP-LC retention time of 679 s.

Turning to `CC(=O)NCCCCCCNC(C)=O`, the RP-LC retention time was 604 s.

Regarding `O=C(Cn1ccc2ccc(N3CCOCC3)nc21)NCc1ccc(C(F)(F)F)cc1`, the RP-LC retention time worked out at 958 s.

Take `CCCN1CC[C@@H]2c3cc(O)ccc3CC[C@@H]21`: the RP-LC retention time came out at 593 s.

With `O=C(NCc1ccncc1)c1sc2ncccc2c1-n1cccc1`, the RP-LC retention time turned out to be 592 s.

Regarding `O=C(Nc1ccccc1)N1CCCC1c1nc(-c2cccc(Cl)c2)no1` (stereo unspecified), the RP-LC retention time amounted to 1030 s.

Compound `CCc1nc(C)c(C)c2nn(Cc3cccc(C#N)c3)c(=O)n12` came in with an RP-LC retention time of 919 s.

`CCn1cc(-c2nc(C)c(C(=O)Nc3ccc(C(=O)OC)cc3)s2)c2cccnc21` had an RP-LC retention time of 1020 s.

Turning to `O=c1c2nc(-c3ccccc3)cn2ccn1-c1ccc(F)cc1`, the RP-LC retention time came to 775 s.

`O=C(NCc1cc(F)ccc1F)c1cn2c(n1)CCCC2` returned an RP-LC retention time of 601 s.

On to `O=c1oc2cc(O)ccc2cc1-c1cc(F)cc(F)c1`, for which the RP-LC retention time worked out at 908 s.

As to `CCc1noc(-c2ccc(-n3cnc(C(=O)NC(C)CC)c3)nc2)n1` (stereo unspecified), the RP-LC retention time turned out to be 828 s.

On to `CCc1nnc(C2CN(C)CC23CCN(S(=O)(=O)c2cc(F)ccc2OC)CC3)o1` (stereo unspecified), for which the RP-LC retention time was 612 s.

`Cc1ccn2c(Nc3ccccc3C)c(-c3cccc(Br)c3)nc2c1` returned an RP-LC retention time of 819 s.

The compound `CC1(C)CC(=O)c2cn(-c3ccccc3)c(=O)c(C(=O)NCc3cccs3)c2C1` returned an RP-LC retention time of 924 s.

The compound `CCOc1ccc(C(=O)Nc2ccc3c(c2)Sc2ncccc2C(=O)N3C)cc1` had an RP-LC retention time of 826 s.

Consider `COc1cccc(-c2noc(N3CCN(c4ccccn4)CC3)n2)c1`, for which the RP-LC retention time amounted to 678 s.

As to `O=C([C@@H]1C[C@H](Oc2cccnc2)CN1C(=O)CCC1CCCC1)N1CCCC1`, the RP-LC retention time came to 640 s.

As for `Cn1ccc2cc(S(=O)(=O)N3CCCC(C(=O)NC4CCCCCC4)C3)ccc21` (stereo unspecified), the RP-LC retention time came out at 1010 s.

In turn, `COc1ccc(N2C(=O)C3N=NN(Cc4nc(-c5ccccc5Cl)no4)C3C2=O)cc1OC` (stereo unspecified) showed an RP-LC retention time of 880 s.

For `CCCn1c(C(=O)NCCc2ccc(S(N)(=O)=O)cc2)cc2c(=O)n(C)c(=O)n(C)c21`, the RP-LC retention time came out at 631 s.

`O=C(COc1ccccc1-c1nnc(-c2ccccc2)o1)Nc1ccc2c(c1)OCCO2` yielded an RP-LC retention time of 1160 s.

`O=C(COc1ccccc1)N1CCN(c2cc(-c3ccccc3)[nH]n2)CC1` registered an RP-LC retention time of 776 s.

On to `Cc1ccc(S(=O)(=O)N2CC=C(c3cn(C)c4ncccc34)CC2)cc1C`, for which the RP-LC retention time worked out at 1080 s.

For `Cc1ccc(S(=O)(=O)N2CCc3ccc(NC(=O)Cc4cccs4)cc3C2)cc1`, the RP-LC retention time came to 942 s.

`CC1(C)CC(=O)c2cn(-c3ccccc3)c(=O)c(C(=O)Nc3ccc(F)cc3F)c2C1` gave an RP-LC retention time of 1090 s.

As to `Nc1ccc(S(=O)(=O)Nc2cnc3c(Cl)cccc3n2)cc1`, the RP-LC retention time stood at 719 s.

For `COc1cc2c(cc1CNC(=O)Cn1cc(C(=O)c3ccco3)c3ccccc31)OCCCO2`, the RP-LC retention time was 902 s.

For the compound `CCCOc1nn(CCC)cc1C(=O)NCc1ccccc1Cl`, the RP-LC retention time was 1010 s.

`O=C(c1ccc(-c2cccs2)nc1)N1CCN(c2ccc(F)cc2)CC1`: the RP-LC retention time came to 950 s.

The compound `Cc1nc(-c2csc(S(=O)(=O)N3CCC(C(=O)NCCN4CCOCC4)CC3)c2)no1` registered an RP-LC retention time of 596 s.

On to `CCOC(=O)c1[nH]c(C)c(C(=O)C(C)N(Cc2ccc(F)cc2)C(=O)C(C)C)c1C` (stereo unspecified), for which the RP-LC retention time amounted to 950 s.

Turning to `COc1ccc(CN2CCN(C(=O)C3=Cc4ccccc4OC3)CC2)c(OC)c1OC`, the RP-LC retention time amounted to 679 s.

Consider `O=C(c1ccncc1)N1CCCCC1c1nc(-c2ccncc2)no1` (stereo unspecified), for which the RP-LC retention time worked out at 689 s.

Take `COc1ccccc1OCC(=O)Nc1cc(-c2ccccn2)no1`: the RP-LC retention time is 802 s.

Compound `CCn1ccc(C(=O)NC(C(=O)N2CCCc3ccccc32)c2ccccc2)n1` (stereo unspecified) showed an RP-LC retention time of 967 s.

As to `Cc1nn(C)cc1CN(C)C(=O)NC1CCCCC1`, the RP-LC retention time was 611 s.

`O=C(CN1C(=O)COc2ccc(Cl)cc21)NCC(=O)N1CCCc2ccccc21` yielded an RP-LC retention time of 862 s.

In the case of `CCn1nc(C)c(CCNC(=O)CCCn2c(=O)c3cccn3c3ccc(Br)cc32)c1C`, the RP-LC retention time amounted to 730 s.

In turn, `CN(CCNC(=O)CCC(=O)N1CCc2c(c(C(=O)N3CCCC3)nn2C)C1)C1CCCCC1` showed an RP-LC retention time of 590 s.
